The text below walks through data of PMC9457746, “Synthesis of Sulfonamides Incorporating Piperidinyl-Hydrazidoureido and Piperidinyl-Hydrazidothioureido Moieties and Their Carbonic Anhydrase I, II, IX and XII Inhibitory Activity” (Molecules, 2022).

Where two headings read alike, the source gives them in different places.

For one data set, the target named is hCA I (Homo sapiens, UniProt P00915). The data set is described as follows: stopped flow CO2 hydrase assay, hCA I inhibition.
In the next data set the target is hCA XII (Homo sapiens, UniProt O43570). The data set is described as follows: stopped flow CO2 hydrase assay, hCA XII inhibition.
The target in another data set is hCA IX (Homo sapiens, UniProt Q16790). The data set is described as follows: stopped flow CO2 hydrase assay, hCA IX inhibition.
The target in the next data set is hCA II (Homo sapiens, UniProt P00918). The data set is described as follows: stopped flow CO2 hydrase assay, hCA II inhibition.
The mark [1] stands for this setting: read-out: Ki (nM) hCAI, Table 2, thioureas 6a-y, recombinant enzyme, 15 min preincubation, mean of at least three determinations.
The mark [2] stands for this setting: read-out: Ki (nM) hCAXII, Table 2, thioureas 6a-y, recombinant enzyme, 15 min preincubation, mean of at least three determinations.
Where [3] appears, read: read-out: Ki (nM) hCAIX, Table 2, thioureas 6a-y, recombinant enzyme, 15 min preincubation, mean of at least three determinations.
Where [4] appears, read: read-out: Ki (nM) hCAII, Table 2, thioureas 6a-y, recombinant enzyme, 15 min preincubation, mean of at least three determinations.

Sequence of hCA I (P00915 whole entry): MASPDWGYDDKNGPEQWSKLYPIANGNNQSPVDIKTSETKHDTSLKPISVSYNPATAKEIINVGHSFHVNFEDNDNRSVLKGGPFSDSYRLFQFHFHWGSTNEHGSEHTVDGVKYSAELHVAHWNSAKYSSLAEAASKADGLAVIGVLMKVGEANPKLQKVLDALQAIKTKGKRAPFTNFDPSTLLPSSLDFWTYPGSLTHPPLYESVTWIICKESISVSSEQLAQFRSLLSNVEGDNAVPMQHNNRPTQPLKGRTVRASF
Sequence of hCA XII (O43570 25-354): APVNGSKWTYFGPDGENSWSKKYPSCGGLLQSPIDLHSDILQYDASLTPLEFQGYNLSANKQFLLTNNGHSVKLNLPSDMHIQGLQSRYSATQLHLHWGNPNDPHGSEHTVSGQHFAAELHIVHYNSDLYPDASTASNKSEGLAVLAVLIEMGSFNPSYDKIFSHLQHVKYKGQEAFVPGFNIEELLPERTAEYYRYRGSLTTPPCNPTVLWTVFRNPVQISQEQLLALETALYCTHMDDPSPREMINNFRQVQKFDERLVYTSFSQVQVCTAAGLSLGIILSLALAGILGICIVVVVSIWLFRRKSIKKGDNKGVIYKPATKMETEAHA
Protocol for hCA II: (§1) An Applied Photophysics stopped-flow instrument has been used for assaying the CA catalyzed CO2 hydration activity using the Khalifah procedure [23]. The used indicator was phenol red (0.2 mM), the absorbance maximum was of 557 nm, and the buffer was 20 mM Hepes (pH 7.5), whereas 20 mM Na2SO4 were employed for maintaining the ionic strength constant. […] Uncatalyzed rates were subtracted from the observed total rates. […] Inhibitor and enzyme solutions were preincubated together for 15 min, for assuring the formation of the E–I complex. The inhibition constants were obtained by non-linear least squares using the Cheng–Prusoff equation, as reported earlier [24, 25, 26] and represent the mean from at least three different determinations.
Protocol for hCA IX: as §1
Protocol for hCA XII: as §1

By Ki is commonly meant the equilibrium dissociation constant of an inhibitor or competing ligand from its target. On to “2-(1-(3-sulfamoylbenzoyl)piperidine-4-carbonyl)-N-(p-tolyl)hydrazine-1-carbothioamide [Compound 6s]”, for which the Ki at hCA I (setting [1]) was 56.5 nM; at hCA XII (setting [2]) it was 2.6 nM; on hCA IX (setting [3]) it was 9.3 nM; on hCA II (setting [4]) it was 4.3 nM. Further, the “increase in hCA XII activity as compared to the 2-methyl analog” value at hCA XII (versus 6r) is “about 8 fold”. Besides, on hCA II (versus 6r), the “increase in hCA II activity as compared to the 2-methyl analog” value is “about 8 fold”.

Take “2-(1-(3-sulfamoylbenzoyl)piperidine-4-carbonyl)-N-(p-tolyl)hydrazine-1-carbothioamide [Compound 6t]”: the Ki came out at 613 nM at hCA I (setting [1]), 31 nM on hCA XII (setting [2]), 28.4 nM at hCA IX (setting [3]) and 58 nM at hCA II (setting [4]).

Consider “4-(4-(4-(4-(Trifluoromethyl)phenyl)piperazine-1-carbonyl)piperidine-1-carbonyl)benzenesulfonamide [Compound 6c]”, for which the figures for the Ki at hCA XII (setting [2]) and on hCA IX (setting [3]) were 4.5 nM and 7.2 nM, respectively.

On to `NS(=O)(=O)c1ccc(C(=O)N2CCC(C(=O)NNC(=O)Nc3ccccc3)CC2)cc1` [Compound 5a], for which the Ki at hCA I stood at 93.3 nM; on hCA XII, 22.8 nM; at hCA IX it was 16.5 nM; at hCA II, 29.3 nM.

What is called melting point is the temperature, or range, at which the solid turns liquid. `NS(=O)(=O)c1ccc(C(=O)N2CCC(C(=O)NNC(=O)Nc3ccccc3Cl)CC2)cc1` [Compound 5b, N-(2-Chlorophenyl)-2-(1-(4-sulfamoylbenzoyl)piperidine-4-carbonyl)hydrazinecarboxamide]: the melting point fell in the range of 214 to 215 °C. In addition, the Ki at hCA I worked out at 164 nM. Moreover, on hCA XII, the affinity corresponds to a Ki of 13.6 nM. The same molecule displayed a Ki at hCA IX of 25.1 nM. The same molecule returned a Ki at hCA II of 15.3 nM.

On to `NS(=O)(=O)c1ccc(C(=O)N2CCC(C(=O)NNC(=O)Nc3cccc(Cl)c3)CC2)cc1` [Compound 5c], for which the inhibition constant Ki at hCA I was 218 nM; at hCA XII, 44.6 nM; on hCA IX it was 37.8 nM; on hCA II, 5.1 nM.

Regarding `NS(=O)(=O)c1ccc(C(=O)N2CCC(C(=O)NNC(=O)Nc3ccc(Cl)cc3)CC2)cc1` [Compound 5d, N-(4-Chlorophenyl)-2-(1-(4-sulfamoylbenzoyl)piperidine-4-carbonyl)hydrazinecarboxamide], the melting point lay in the range of 209 to 210 °C. In addition, at hCA I, affinity was put at a Ki of 447 nM. The Ki at hCA XII amounted to 101 nM. This molecule also showed a Ki at hCA IX of 93.7 nM. Also, the affinity on hCA II corresponds to a Ki of 109 nM.

For the molecule `NS(=O)(=O)c1ccc(C(=O)N2CCC(C(=O)NNC(=O)Nc3c(Cl)cccc3Cl)CC2)cc1` [Compound 5e], the Ki at hCA I came to 259 nM; on hCA XII it was 16.4 nM; at hCA IX it was 28.9 nM; at hCA II, 68.8 nM.

As for `NS(=O)(=O)c1ccc(C(=O)N2CCC(C(=O)NNC(=O)Nc3ccccc3F)CC2)cc1` [Compound 5f, N-(2-fluorophenyl)-2-(1-(4-sulfamoylbenzoyl)piperidine-4-carbonyl)hydrazinecarboxamide], the melting point lay within 229 to 230 °C. Also, the affinity on hCA I, expressed as Ki, was 562 nM. The same molecule yielded a Ki at hCA XII of 8.4 nM. Also, the Ki at hCA IX is 22.5 nM. Besides, at hCA II, the Ki was determined as 24.6 nM.

For `NS(=O)(=O)c1ccc(C(=O)N2CCC(C(=O)NNC(=O)Nc3cccc(F)c3)CC2)cc1` [Compound 5g, N-(3-fluorophenyl)-2-(1-(4-sulfamoylbenzoyl)piperidine-4-carbonyl)hydrazinecarboxamide], the melting point fell in the range of 214 to 215 °C. Moreover, the Ki on hCA I is 277 nM. The same molecule registered a Ki at hCA XII of 19.4 nM. At hCA IX, this molecule had a Ki of 89.7 nM. The same molecule came in with a Ki on hCA II of 17.7 nM.

For `NS(=O)(=O)c1ccc(C(=O)N2CCC(C(=O)NNC(=O)Nc3ccc(F)cc3)CC2)cc1` [Compound 5h], the Ki at hCA I turned out to be 60.6 nM; on hCA XII, 24 nM; at hCA IX, 2.1 nM; on hCA II, 12.1 nM.

Take `NS(=O)(=O)c1ccc(C(=O)N2CCC(C(=O)NNC(=O)Nc3c(F)cccc3F)CC2)cc1` [Compound 5i, N-(2,6-difluorophenyl)-2-(1-(4-sulfamoylbenzoyl)piperidine-4-carbonyl)hydrazinecarboxamide]: the melting point fell in the range of 194 to 195 °C. This molecule had a Ki on hCA I of 184 nM. The molecule also came in with a Ki at hCA XII of 12.7 nM. Moreover, the Ki at hCA IX came to 10.1 nM. The molecule further gave a Ki on hCA II of 8.6 nM.

Molecule `Cc1ccccc1NC(=O)NNC(=O)C1CCN(C(=O)c2ccc(S(N)(=O)=O)cc2)CC1` [Compound 5j, 2-(1-(4-Sulfamoylbenzoyl)piperidine-4-carbonyl)-N-(o-tolyl)hydrazinecarboxamide] had a melting point of 238 to 240 °C. The molecule also returned a Ki at hCA I of 67.6 nM. In addition, on hCA XII, the Ki came out at 60.4 nM. On hCA IX, this molecule returned a Ki of 34.5 nM. The Ki on hCA II was 25.4 nM.

For `Cc1cccc(NC(=O)NNC(=O)C2CCN(C(=O)c3ccc(S(N)(=O)=O)cc3)CC2)c1` [Compound 5k, 2-(1-(4-Sulfamoylbenzoyl)piperidine-4-carbonyl)-N-(m-tolyl)hydrazinecarboxamide], the melting point fell in the range of 222 to 225 °C. Further, the Ki at hCA I turned out to be 94.5 nM. For the same molecule, the Ki on hCA XII stood at 15.6 nM. Moreover, the Ki at hCA IX was 8.2 nM. The Ki on hCA II turned out to be 114 nM.

As to `Cc1ccc(NC(=O)NNC(=O)C2CCN(C(=O)c3ccc(S(N)(=O)=O)cc3)CC2)cc1` [Compound 5l], the Ki at hCA I amounted to 81.7 nM; at hCA XII it was 36.7 nM; at hCA IX it was 8.1 nM; on hCA II, 22 nM.

The molecule `Cc1cccc(C)c1NC(=O)NNC(=O)C1CCN(C(=O)c2ccc(S(N)(=O)=O)cc2)CC1` [Compound 5m, N-(2,6-Dimethylphenyl)-2-(1-(4-sulfamoylbenzoyl)piperidine-4-carbonyl)hydrazinecarboxanide] came in with a melting point of 212 to 213 °C. In addition, the Ki at hCA I was 364 nM. In addition, the affinity on hCA XII, expressed as Ki, was 51.2 nM. For the same molecule, the Ki at hCA IX is 25.1 nM. This molecule also registered a Ki at hCA II of 62.1 nM.

For the molecule `Cc1cc(C)cc(NC(=O)NNC(=O)C2CCN(C(=O)c3ccc(S(N)(=O)=O)cc3)CC2)c1` [Compound 5n, N-(3,5-Dimethylphenyl)-2-(1-(4-sulfamoylbenzoyl)piperidine-4-carbonyl)hydrazinecarboxamide], the melting point was in the range of 216 to 217 °C. The same molecule gave a Ki on hCA I of 165 nM. This molecule also yielded a Ki on hCA XII of 44.7 nM. For the same molecule, on hCA IX, the affinity, expressed as Ki, was 34.4 nM. For the same molecule, the Ki on hCA II was determined as 47.8 nM.

Consider `COc1ccccc1NC(=O)NNC(=O)C1CCN(C(=O)c2ccc(S(N)(=O)=O)cc2)CC1` [Compound 5o], for which the melting point fell in the range of 219 to 220 °C. At hCA I, this molecule had a Ki of 451 nM. The molecule further showed a Ki at hCA XII of 19.6 nM. This molecule also had a Ki at hCA IX of 8.6 nM. On hCA II, this molecule showed a Ki of 185 nM.

On to `COc1cccc(NC(=O)NNC(=O)C2CCN(C(=O)c3ccc(S(N)(=O)=O)cc3)CC2)c1` [Compound 5p, (3-Methoxyphenyl)-2-(1-(4-sulfamoylbenzoyl)piperidine-4-carbonyl)hydrazinecarboxamide], for which the melting point lay in the range of 218 to 220 °C. The molecule also showed a Ki at hCA I of 281 nM. On hCA XII, this molecule returned a Ki of 17 nM. For the same molecule, the Ki at hCA IX turned out to be 24 nM. This molecule showed a Ki on hCA II of 45.6 nM. Moreover, the “increase of activity on hCA II on shifting the methoxy group into 3-position” value at hCA II (versus methoxy analogs 5o/5q) is “about 2 fold”.

Molecule `COc1ccc(NC(=O)NNC(=O)C2CCN(C(=O)c3ccc(S(N)(=O)=O)cc3)CC2)cc1` [Compound 5q] came in with a melting point of 228 to 230 °C. Besides, on hCA I, the Ki came to 487 nM. This molecule displayed a Ki on hCA XII of 9.1 nM. The Ki on hCA IX was found to be 8.9 nM. The molecule also had a Ki at hCA II of 99.7 nM.

`COc1ccc(NC(=O)NNC(=O)C2CCN(C(=O)c3ccc(S(N)(=O)=O)cc3)CC2)c(OC)c1` [Compound 5r]: the Ki was found to be 322 nM at hCA I, 15.6 nM on hCA XII, 23.2 nM at hCA IX and 19.8 nM at hCA II.

On to `NS(=O)(=O)c1ccc(C(=O)N2CCC(C(=O)NNC(=O)NCc3ccccc3)CC2)cc1` [Compound 5t], for which the inhibitory constant (Ki) is 77.8 nM on hCA I, 20.1 nM at hCA XII, 40 nM at hCA IX and 48.2 nM on hCA II.

Take `COc1ccc(CNC(=O)NNC(=O)C2CCN(C(=O)c3ccc(S(N)(=O)=O)cc3)CC2)cc1` [Compound 5u]: the Ki on hCA I came to 130 nM; on hCA XII, 6.4 nM; on hCA IX, 45.3 nM; at hCA II it was 40.7 nM. Besides, on hCA XII (hCA XII versus hCA II and hCA IX), the “selectivity for hCAXII compared with hCAII and hCAIX” value is given as “about 6 fold”.

For `NS(=O)(=O)c1ccc(C(=O)N2CCC(C(=O)NNC(=S)Nc3ccccc3)CC2)cc1` [Compound 6a, N-phenyl-2-(1-(4-sulfamoylbenzoyl)piperidine-4-carbonyl)hydrazine-1-carbothioamide], the melting point was in the range of 210 to 211 °C. Besides, the affinity on hCA I, expressed as Ki, was 30.1 nM. The molecule further displayed a Ki at hCA XII of 3.2 nM. For the same molecule, the “selectivity of hCA XII inhibition on hCA I and hCA II” value at hCA XII (hCA XII versus hCA I and hCA II) is “about 8 fold”. For the same molecule, on hCA IX, the Ki is 28.8 nM. On hCA II, this molecule yielded a Ki of 26.5 nM.

As for `NS(=O)(=O)c1ccc(C(=O)N2CCC(C(=O)NNC(=S)Nc3cccc(F)c3)CC2)cc1` [Compound 6o, N-(3-Fluorophenyl)-2-(1-(4-sulfamoylbenzoyl)piperidine-4-carbonyl)hydrazinecarbothioamide], the results for the Ki at hCA I, at hCA IX (setting [3]) and on hCA II were 590 nM, 5.6 nM and 102 nM, respectively.

For the molecule “N-(1-Phenylethyl)-2-(1-(4-sulfamoylbenzoyl)piperidine-4-carbonyl)hydrazinecarbothioamide [Compound 6x]”, the Ki at hCA I (setting [1]) was 76.6 nM; at hCA XII (setting [2]) it was 10.4 nM; at hCA IX (setting [3]), 2.9 nM; at hCA II (setting [4]), 7.6 nM.
